From US20260272797A1, “FRAGRANCE COMPOSITION” (GIVAUDAN SA, priority 2023, published 2026)

Key:
[1] = Gas-phase evaluation of each fragrance ingredient alone against model scalp malodour, MiniVAS device, panel of 5 experts; conditions: for Scalp MOC of ingredient alone: expert description
Description: In a first set of experiments, the scalp malodour counteractancy of 173 fragrance ingredients was evaluated by panel of 5 experts.
The evaluation was performed in the gas phase, using a MiniVAS™ device (ex Givaudan SA). This device is a regulating means that comprises a plurality of channels adapted to convey a gas (more particularly air) through cartridges, each cartridge containing a fragrance ingredient adsorbed onto an adsorbent. The air flows coming from the different cartridges are admixed and conveyed to the user's nose through a tubing fitted with an olfactometer funnel. Thus, by opening and closing channels and maintaining these opened and closed, respectively, for predetermined times, the regulating means can determine which fragrance ingredients and how much thereof are conveyed and when, and thus alter the nature of the fragrance perceived by the user. A description of the device can be found in WO2014154909A1, page 2, line 11 to page 4, line 7, and in H. R. Gygax et al. “Evolution of Real Time Aroma Creation at Givaudan”, poster presented at the 12th Weurman Flavour Research Symposium. July 2008. Interlaken, Switzerland; DOI: 10.13140/2.1.1924.0641.
For the sake of the present evaluation, one cartridge contained the scalp malodour (in the form of a model malodour) and each fragrance ingredient was assigned to another cartridge. The malodour counteractancy of each fragrance ingredient was evaluated separately against the scalp malodour. A constant air flow rate of 50 ml/min was used for all measurements. The perceived malodour intensity, as well as the fragrance intensity, were ranked on a scale of 1-5 (1=barely noticeable, 2=weak, 3=medium, 4=strong and 5=very strong).

[2] = Impact of fragrance ingredients on scalp malodour counteractancy of 80 fragrance compositions (Example 2 protocol, statistical presence); conditions: series of 80 fragrance compositions
Description: In a second set of experiments, the impact of these fragrance ingredients on the scalp malodour counteractancy of a fragrance composition was assessed. The scalp malodour counteractancy of a series of 80 fragrance compositions was assessed by performing the evaluation protocol described in Example 2. […] Ingredients that were statistically more present in fragrances having a high malodour counteractancy were assigned a positive status, whereas ingredients that were statistically more present in compositions having a low malodour counteractancy were assigned a negative status.

[3] = Table 3, air flow 50 ml/min, scale of 1-5 (1=barely noticeable, 5=very strong)
[4] = Table 4, air flow 50 ml/min, scale of 1-5

SMILES	MO intensity [1, 3]	Scalp MOC of ingredient alone ([1]; Table 3, gas phase)	Impact on scalp MOC of fragrance composition ([2]; Table 3)	MO intensity [1, 4]	Impact on scalp MOC of fragrance composition ([2]; Table 4)	Scalp MOC of ingredient alone ([1]; Table 4, gas phase)
CC(=O)C1(C)CC2=C(CCCC2(C)C)CC1C (stereo not shown) [1-(2,3,8,8-tetramethyl-1,2,3,4,5,6,7,8-octahydronaphthalen-2-yl)ethanone]	1	No effect	Positive	–	–	–
CC(=O)c1ccc2ccccc2c1 [1-(2-naphtalenyl)-ethanone]	–	–	–	1	Negative	–
CC(=O)c1cc2c(cc1C)C(C)(C)C(C)CC2(C)C (stereo not shown) [1-(3,5,5,6,8,8-hexamethyl-5,6,7,8-tetrahydronaphthalen-2-yl)ethanone]	3	–	Positive	–	–	–
CC(=O)C1=C(C)C2C[C@@]3(C1)C(CC[C@@H]3C)C2(C)C (stereo partly drawn) [1-((1S,8aS)-1,4,4,6-tetramethyl-2,3,3a,4,5,8-hexahydro-1H-5,8a-methanoazulen-7-yl)ethanone]	–	–	–	1	Negative	–
CCC(O)COC1CCCCC1C(C)(C)C (stereo not shown) [1-((2-(tert-butyl)cyclohexyl)oxy)butan-2-ol]	2.3	Coverage	Positive	–	–	–
CC(=O)C1CC/C=C\C(C)C(C)/C=C\C/C=C/1C (stereo not shown) [1-((2E,5Z,9Z)-2,7,8-trimethylcyclododeca-2,5,9-trien-1-yl)ethanone]	1	No effect	Positive	–	–	–
CCCCOC(=O)C(C)OC(=O)CCC (stereo not shown) [1-butoxy-1-oxopropan-2-yl butanoate]	1	No effect	Positive	–	–	–
CC(C)=CCC(C)C1CC1(C)CO (stereo not shown) [1-methyl-2-(5-methylhex-4-en-2-yl)cyclopropylmethanol]	2.7	–	Positive	–	–	–
CC1(CO)CC1CC1CC2CC2(C)C1(C)C (stereo not shown) [1-methyl-2-((1,2,2-trimethylbicyclo[3.1.0]hexan-3-yl)methyl)cyclopropyl)methanol]	3.3	–	Positive	–	–	–
CC(=O)c1ccccc1 [1-phenylethanone]	5	–	Positive	–	–	–
c1ccc2[nH]ccc2c1 [1H-indole]	4	–	Positive	–	–	–
CCCCCC1(C)CCC(C)(C)C1=O (stereo not shown) [2,2,5-trimethyl-5-pentylcyclopentanone]	3.5	–	Positive	–	–	–
CC1CC(C)(c2ccccc2)OC(C)O1 (stereo not shown) [2,4,6-trimethyl-4-phenyl-1,3-dioxane]	–	–	–	1	Negative	–
CC1CC(C)(c2ccccc2)CO1 (stereo not shown) [2,4-dimethyl-4-phenyltetrahydrofuran]	–	–	–	4.1	Negative	–
CC1=CC(C)C(C=O)CC1 (stereo not shown) [2,4-dimethylcyclohex-3-ene-1-carbaldehyde]	–	–	–	1	Negative	–
CC1=CC(C)C(C=O)CC1 (stereo not shown) [2,4-dimethylcyclohex-3-enecarbaldehyde]	–	–	–	3.8	–	Good coverage
Cc1ncsc1CCO [2-(4-Methyl-1,3-thiazol-5-yl)ethanoL]	1	No effect	Positive	–	–	–
CC(=O)OCCC1=CCC2CC1C2(C)C (stereo not shown) [2-(6,6-dimethylbicyclo[3.1.1]hept-2-en-2-yl)ethyl acetate]	2	–	Positive	–	–	–
CC(C)C(=O)OCCOc1ccccc1 [2-(phenoxy)ethyl 2-methylpropanoate]	–	–	–	2.3	Negative	–
CC(=O)OC1CCCCC1C(C)(C)C (stereo not shown) [2-(tert-butyl)cyclohexyl acetate]	2	–	Positive	–	–	–
N#CC(=C1CCCCC1)c1ccccc1 [2-cyclohexylidene-2-phenylacetonitrile]	–	–	–	1	Negative	–
CCOc1cc(C)ccc1O [2-ethoxy-4-methylphenol]	2.8	–	Positive	–	–	–
CCC1OC(C)=C(O)C1=O (stereo not shown) [2-ethyl-4-hydroxy-5-methylfuran-3(2H)-one]	–	–	–	4.5	Negative	–
CC1CCC(C(C)C)C(O)C1 (stereo not shown) [2-isopropyl-5-methylcyclohexanol]	1.2	–	Positive	–	–	–
CCCc1ccc(O)c(OC)c1 [2-methoxy-4-propylphenol]	2	–	Positive	–	–	–

SMILES	MO intensity [1, 3]	Scalp MOC of ingredient alone ([1]; Table 3, gas phase)	Impact on scalp MOC of fragrance composition ([2]; Table 3)	MO intensity [1, 4]	Impact on scalp MOC of fragrance composition ([2]; Table 4)	Scalp MOC of ingredient alone ([1]; Table 4, gas phase)
CC(C)(O)Cc1ccccc1 [2-methyl-1-phenylpropan-2-ol]	–	–	–	1	Negative	–
CCCC(=O)OC(C)(C)Cc1ccccc1 [2-methyl-1-phenylpropan-2-yl butanoate]	–	–	–	3	Negative	–
CCCC1CCOC(C)S1 (stereo not shown) [2-methyl-4-propyl-1,3-oxathiane]	–	–	–	1	Negative	–
CCCCCCCCCC(C)C=O (stereo not shown) [2-methylundecanal]	3.5	–	Positive	–	–	–
OCCc1ccccc1 [2-phenylethanol]	–	–	–	3.2	Negative	–
CC(=O)OCCc1ccccc1 [2-phenylethyl acetate]	–	–	–	1	Negative	–
CC(C)=CCCC(C)CCO (stereo not shown) [3,7-dimethyloct-6-en-1-ol]	2.5	–	Positive	–	–	–
CC(=O)OCCC(C)CCC=C(C)C (stereo not shown) [3,7-dimethyloct-6-en-1-yl acetate]	–	–	–	2	Negative	Low coverage
CC(C)=CCCC(C)CC=O (stereo not shown) [3,7-dimethyloct-6-enal]	3	–	Positive	–	–	–
CC(C)CCCC(C)CCO (stereo not shown) [3,7-dimethyloctan-1-ol]	4.3	–	Positive	–	–	–
CCC(C)(O)CCCC(C)C (stereo not shown) [3,7-dimethyloctan-3-ol]	–	–	–	3	Negative	–
CC(CCO)CCCC(C)(C)O (stereo not shown) [3,7-dimethyloctane-1,7-diol]	1	No effect	Positive	–	–	–
Cc1cc(CC(C)C)ccc1CCC=O [3-(4-(2-methylpropyl)-2-methylphenyl)propanal]	2.8	–	Positive	–	–	–
CC(C=O)Cc1ccc(C(C)(C)C)cc1 (stereo not shown) [3-(4-(tert-butyl)phenyl)-2-methylpropanal]	2.8	–	Positive	–	–	–
COc1ccc(CC(C)C=O)cc1 (stereo not shown) [3-(4-methoxyphenyl)-2-methylpropanal]	1	No effect	Positive	–	–	–
CCCCC1COCC(C)C1OC(C)=O (stereo not shown) [3-butyl-5-methyltetrahydro-2H-pyran-4-yl acetate]	–	–	–	1	Negative	–
Cc1occc(=O)c1O [3-hydroxy-2-methyl-4H-pyran-4-one]	4	–	Positive	–	–	–
CC(=O)C(C)O (stereo not shown) [3-hydroxybutan-2-one]	4	–	Positive	–	–	–
CC(CCO)CCc1ccccc1 (stereo not shown) [3-methyl-5-phenylpentan-1-ol]	2	–	Positive	–	–	–
CC1COCc2cc3c(cc21)C(C)(C)C(C)C3(C)C (stereo not shown) [4,6,6,7,8,8-hexamethyl-1,3,4,6,7,8-hexahydrocyclopenta[g]isochromene]	3	–	Positive	–	–	–
CCC(=O)C(C)CC=C(C)C (stereo not shown) [4,7-dimethyloct-6-en-3-one]	–	–	–	4	Negative	–
CC(=O)CCC1=C(C)CCCC1(C)C [4-(2,6,6-trimethylcyclohex-1-en-1-yl)butan-2-one]	–	–	–	1	Negative	–
CC(C)=CCCC1=CCC(C=O)CC1 (stereo not shown) [4-(4-methylpent-3-en-1-yl)cyclohex-3-enecarbaldehyde]	–	–	–	1	Negative	–
C=CCc1ccc(O)c(OC)c1 [4-allyl-2-methoxyphenol]	4	–	Positive	–	–	–
